Experimental data published in patent publication US5648336A (University of Colorado, priority 1994, dated 1997).
Read-outs that look alike come from different tables or passages of the source. Square brackets hold non-standard residues; d marks the D form. Ends that are not written are not given here. Peptide text beside a SMILES is read from it. * marks the point of attachment. X1 = N=C(N)NCCC[C@@H](NC(=NC1CCCCC1)NC1CCCCC1)C(=O)*; Oic = O=C(O)[C@@H]1C[C@@H]2CCCC[C@@H]2N1; dIgl = N[C@@H](C(=O)O)C1Cc2ccccc2C1; Igl = N[C@H](C(=O)O)C1Cc2ccccc2C1; Hyp = O=C(O)[C@@H]1C[C@@H](O)CN1; 2Thi = N[C@@H](Cc1cccs1)C(=O)O

Columns and labels:
[1] = test system: guinea pig ileum
Text: (§1) A change of one unit of pA2 value represents an order of magnitude change in potency.
(§2) On isolated smooth muscles, agonist potency is given as percent of BK potency; antagonist potency is given as pA2, and is underlined. In blood pressure assays, the number is the dose of peptide in micrograms that causes 50% reduction in the effect of BK intraarterially administered as a bolus mixture in a 500 g male rat; Ag indicates unquantitated agonist activity; Ant indicates unquantitated antagonist activity.

[2] = test system: isolated rat uterus
Text: as §1, §2

[3] = target: T1, B1 receptors (Oryctolagus cuniculus, UniProt P48748); assay: B1 receptor bioassay, rabbit aorta strips contracted with des-Arg9-BK; type: cell-based; details: 50% reduction of sustained contraction to 10^-7 M des-Arg9-BK; read-out: Rabbit Aorta p IC50 B1 receptors (converted)
T1 construct: The thorax was opened and the thoracic aorta carefully removed; from tissue; host or cells: rabbit thoracic aorta spiral strips
T1 sequence (P48748 1-352): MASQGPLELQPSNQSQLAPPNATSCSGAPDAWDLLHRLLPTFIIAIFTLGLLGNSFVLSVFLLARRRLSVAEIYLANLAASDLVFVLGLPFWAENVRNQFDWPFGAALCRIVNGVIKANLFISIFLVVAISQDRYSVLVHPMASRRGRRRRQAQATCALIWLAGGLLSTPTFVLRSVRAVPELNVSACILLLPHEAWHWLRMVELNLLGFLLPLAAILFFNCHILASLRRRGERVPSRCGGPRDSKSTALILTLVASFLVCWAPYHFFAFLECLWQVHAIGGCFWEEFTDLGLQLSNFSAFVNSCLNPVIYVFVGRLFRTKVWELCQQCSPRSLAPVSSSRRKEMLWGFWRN
Description: Male New Zealand white rabbits, weight range 2-3 kg, were killed by an overdose of pentobarbital i.v. The thorax was opened and the thoracic aorta carefully removed. […] The tissues were placed under 1 gm isometric tension and allowed to equilibrate for 1H. At time 1h, a concentration-effect curve was constructed to the selective B1 agonist des-Arg^9 -BK. This was repeated at time 3 hours. […] Once the contraction was sustained, the compound to be assayed was applied to the tissue bath in a cumulative manner. The concentration of the compound which produced a 50% reduction of the sustained contraction was calculated. The negative logarithm of this concentration was calculated and expressed as the […].

[4] = guinea pig ileum, vs double ED50 dose of bradykinin

N=C(N)NCCC[C@@H](N)C(=O)N[C@@H](CCCNC(=N)N)C(=O)N1CCC[C@H]1C(=O)N1C[C@H](O)C[C@H]1C(=O)NCC(=O)N[C@@H](Cc1cccs1)C(=O)N[C@@H](CO)C(=O)N[C@@H](C(=O)N[C@@H](C(=O)N[C@@H](CCCNC(=N)N)C(=O)O)C1Cc2ccccc2C1)C1CCCC1 [Compound 9, DArg-Arg-Pro-Hyp-Gly-Thi-Ser-DCpg-DIglb-Arg]
Ileum Activity, antagonist potency given as pA2 [1]: 7.2
Uterus Activity, antagonist potency given as pA2 [2]: 7.4

N=C(N)NCCC[C@@H](N)C(=O)N[C@@H](CCCNC(=N)N)C(=O)N1CCC[C@H]1C(=O)N1C[C@H](O)C[C@H]1C(=O)NCC(=O)N[C@H](C(=O)N[C@@H](CO)C(=O)N[C@@H](C(=O)N[C@@H](C(=O)N[C@@H](CCCNC(=N)N)C(=O)O)C1Cc2ccccc2C1)C1CCCC1)C1CCCC1 [Compound 11, DArg-Arg-Pro-Hyp-Gly-Cpg-Ser-DCpg-DIglb-Arg]
IC50 [3]: 398 nM

N=C(N)NCCC[C@@H](N)C(=O)N[C@@H](CCCNC(=N)N)C(=O)N1CCC[C@H]1C(=O)N1C[C@H](O)C[C@H]1C(=O)NCC(=O)N[C@H](C(=O)N[C@@H](CO)C(=O)N1Cc2ccccc2C[C@@H]1C(=O)N[C@H](C(=O)N[C@@H](CCCNC(=N)N)C(=O)O)C1Cc2ccccc2C1)C1CCCC1 [Compound 12, DArg-Arg-Pro-Hyp-Gly-Cpg-Ser-DTic-Iglb-Arg]
Ileum Activity, antagonist potency given as pA2 [1]: 5.1
Uterus Activity, agonist potency given as percent of BK potency [2]: 10.5%

N=C(N)NCCC[C@@H](N)C(=O)N[C@@H](CCCNC(=N)N)C(=O)N1CCC[C@H]1C(=O)N1C[C@H](O)C[C@H]1C(=O)NCC(=O)N[C@H](C(=O)N[C@@H](CO)C(=O)N1Cc2ccccc2C[C@@H]1C(=O)N[C@@H](C(=O)N[C@@H](CCCNC(=N)N)C(=O)O)C1Cc2ccccc2C1)C1CCCC1 [Compound 13, DArg-Arg-Pro-Hyp-Gly-Cpg-Ser-DTic-DIglb-Arg]
Ileum Activity, antagonist potency given as pA2 [1]: 6.0
Uterus Activity, agonist potency given as percent of BK potency [2]: 8.6%

N=C(N)NCCC[C@@H](N)C(=O)N[C@@H](CCCNC(=N)N)C(=O)N1CCC[C@H]1C(=O)N1C[C@H](O)C[C@H]1C(=O)NCC(=O)N[C@@H](Cc1ccccc1)C(=O)N[C@@H](CO)C(=O)N[C@H](C(=O)N1[C@H](C(=O)N[C@@H](CCCNC(=N)N)C(=O)O)C[C@@H]2CCCC[C@@H]21)C1Cc2ccccc2C1 [Compound 14, DArg-Arg-Pro-Hyp-Gly-Phe-Ser-Iglb-Oic-Arg] (H-[dR]RP[Hyp]GFS[Igl][Oic]R-OH)
Ileum Activity, antagonist potency given as pA2 [1]: 5.1
Uterus Activity, antagonist potency given as pA2 [2]: 6.5

N=C(N)NCCC[C@@H](N)C(=O)N[C@@H](CCCNC(=N)N)C(=O)N1CCC[C@H]1C(=O)N1C[C@H](O)C[C@H]1C(=O)NCC(=O)N[C@@H](Cc1ccccc1)C(=O)N[C@@H](CO)C(=O)N[C@@H](C(=O)N1[C@H](C(=O)N[C@@H](CCCNC(=N)N)C(=O)O)C[C@@H]2CCCC[C@@H]21)C1Cc2ccccc2C1 [Compound 15, DArg-Arg-Pro-Hyp-Gly-Phe-Ser-DIglb-Oic-Arg] (H-[dR]RP[Hyp]GFS[dIgl][Oic]R-OH)
Ileum Activity, antagonist potency given as pA2 [1]: 7.6
Uterus Activity, antagonist potency given as pA2 [2]: 7.9
IC50 [3]: 162 nM

N=C(N)NCCC[C@@H](N)C(=O)N[C@@H](CCCNC(=N)N)C(=O)N1CCC[C@H]1C(=O)N1C[C@H](O)C[C@H]1C(=O)NCC(=O)N[C@H](C(=O)N[C@@H](CO)C(=O)N[C@@H](C(=O)N1[C@H](C(=O)N[C@@H](CCCNC(=N)N)C(=O)O)C[C@@H]2CCCC[C@@H]21)C1Cc2ccccc2C1)C1CCCC1 [Compound 24, DArg-Arg-Pro-Hyp-Gly-Cpg-Ser-DIglb-Oic-Arg]
Ileum Activity, antagonist potency given as pA2 [1]: 8.1
IC50 [3]: 427 nM

Cc1ccc(C[C@H](NC(=O)CNC(=O)[C@@H]2C[C@@H](O)CN2C(=O)[C@@H]2CCCN2C(=O)[C@H](CCCNC(=N)N)NC(=O)[C@H](N)CCCNC(=N)N)C(=O)N[C@@H](CO)C(=O)N[C@@H](C(=O)N2[C@H](C(=O)N[C@@H](CCCNC(=N)N)C(=O)O)C[C@@H]3CCCC[C@@H]32)C2Cc3ccccc3C2)c(C)c1 [Compound 26, DArg-Arg-Pro-Hyp-Gly-DMF-Ser-DIglb-Oic-Arg]
Ileum Activity, antagonist potency given as pA2 [1]: 6.6
Uterus Activity, antagonist potency given as pA2 [2]: 7.3

N=C(N)NCCC[C@@H](N)C(=O)N[C@@H](CCCNC(=N)N)C(=O)N1CCC[C@H]1C(=O)N1C[C@H](O)C[C@H]1C(=O)NCC(=O)N[C@H](C(=O)N[C@@H](CO)C(=O)N1Cc2ccccc2C[C@@H]1C(=O)N(CC(=O)N[C@@H](CCCNC(=N)N)C(=O)O)C1Cc2ccccc2C1)C1CCCC1 [Compound 29, DArg-Arg-Pro-Hyp-Gly-Cpg-Ser-DTic-Nigb-Arg]
Ileum Activity, antagonist potency given as pA2 [1]: 7.6
Uterus Activity, antagonist potency given as pA2 [2]: 8.1

N=C(N)NCCC[C@@H](N)C(=O)N[C@@H](CCCNC(=N)N)C(=O)N1CCC[C@H]1C(=O)N1C[C@H](O)C[C@H]1C(=O)NCC(=O)N[C@@H](C(=O)N[C@@H](CO)C(=O)N[C@@H](C(=O)N1[C@H](C(=O)N[C@@H](CCCNC(=N)N)C(=O)O)C[C@@H]2CCCC[C@@H]21)C1Cc2ccccc2C1)C1Cc2ccccc2C1 [Compound 30, DArg-Arg-Pro-Hyp-Gly-DIglb-Ser-DIglb-Oic-Arg]
IC50 [3]: > 10000 nM

N=C(N)NCCC[C@H](NC(=O)[C@@H]1C[C@@H]2CCCC[C@@H]2N1C(=O)[C@@H](NC(=O)[C@H](CO)NC(=O)[C@H](Cc1cccs1)NC(=O)CNC(=O)[C@@H]1C[C@@H](O)CN1C(=O)[C@@H]1CCCN1C(=O)[C@H](CCCNC(=N)N)NC(=O)[C@@H](CCCNC(=N)N)NC(=O)C12CC3CC(CC(C3)C1)C2)C1Cc2ccccc2C1)C(=O)O [Compound 54, Aca-DArg-Arg-Pro-Hyp-Gly-Thi-Ser-Iglb-Oic-Arg]
Uterus Activity, antagonist potency given as pA2 [2]: 5.8

N=C(N)NCCC[C@H](NC(=O)[C@@H]1C[C@@H]2CCCC[C@@H]2N1C(=O)[C@H](NC(=O)[C@H](CO)NC(=O)[C@H](Cc1cccs1)NC(=O)CNC(=O)[C@@H]1C[C@@H](O)CN1C(=O)[C@@H]1CCCN1C(=O)[C@H](CCCNC(=N)N)NC(=O)[C@@H](CCCNC(=N)N)NC(=O)C12CC3CC(CC(C3)C1)C2)C1Cc2ccccc2C1)C(=O)O [Compound 55, Aca-DArg-Arg-Pro-Hyp-Gly-Thi-Ser-DIglb-Oic-Arg]
Ileum Activity, antagonist potency given as pA2 [1]: 8.4
Uterus Activity, antagonist potency given as pA2 [2]: 9.2
IC50 [3]: 269 nM

N=C(N)NCCC[C@H](NC(=O)[C@@H]1C[C@@H]2CCCC[C@@H]2N1C(=O)[C@H](NC(=O)[C@H](CO)NC(=O)[C@H](Cc1cccs1)NC(=O)CNC(=O)[C@@H]1C[C@@H](O)CN1C(=O)[C@@H]1CCCN1C(=O)[C@H](CCCNC(=N)N)NC(=O)[C@@H](CCCNC(=N)N)NC(=NC1CCCCC1)NC1CCCCC1)C1Cc2ccccc2C1)C(=O)O [Compound 58, Dcg-DArg-Arg-Pro-Hyp-Gly-Thi-Ser-DIglb-Oic-Arg] (X1-RP[Hyp]G[2Thi]S[dIgl][Oic]R-OH)
Ileum Activity, antagonist potency given as pA2 [1]: 5.4
Uterus Activity, agonist potency given as percent of BK potency [2]: 3.0%

N=C(N)NCCC[C@H](NC(=O)[C@@H]1C[C@@H]2CCCC[C@@H]2N1C(=O)[C@H](NC(=O)[C@H](CO)NC(=O)[C@H](Cc1cccs1)NC(=O)CNC(=O)[C@@H]1C[C@@H](O)CN1C(=O)[C@@H]1CCCN1C(=O)[C@H](CCCNC(=N)N)NC(=O)[C@@H](CCCNC(=N)N)NC(=O)C1=CN2CCC1CC2)C1Cc2ccccc2C1)C(=O)O [Compound 59, Dhq-DArg-Arg-Pro-Hyp-Gly-Thi-Ser-DIglb-Oic-Arg]
Ileum Activity, antagonist potency given as pA2 [1]: 7.2
Uterus Activity, antagonist potency given as pA2 [2]: 8.1

DArg-Arg-Pro-Hyp-Gly-Thi-Ser-DIgl-Iglb-Arg [Compound 19]
Ileum Activity, antagonist potency given as pA2 [1, 4]: 6.7
Uterus Activity, agonist potency given as percent of BK potency ([2]; isolated rat uterus): 9.1%

DArg-Arg-Pro-Hyp-Gly-Thi-Ser-Higb-Oic-Arg [Compound 125]
Ileum Activity, antagonist potency given as pA2 [1, 4]: 6.6
Uterus Activity, agonist potency given as percent of BK potency ([2]; isolated rat uterus): 9.4%

RPPGFSPFR [bradykinin, Arg^1 -Pro^2 -Pro^3 -Gly^4 -Phe^5 -Ser^6 -Pro^7 -Phe^8 -Arg^9, reference compound]
pD2 value (negative logarithm of the dose causing half-maximal contraction) ([1]; guinea pig ileum): 7.4
pD2 value (negative logarithm of the dose causing half-maximal contraction) ([2]; rat uterus): 7.9
